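Five concentrations, 48 hours, 96-well plates. At the GI50, growth is halved. TGI marks complete inhibition of growth.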
Tests used:
Experiment in all cases: DTP human tumour cell line panel, 48 h
786-0 renal = system: 786-0 renal
A498 renal = system: A498 renal
A549 NSCLC = system: A549 NSCLC
ACHN renal = system: ACHN renal
BT-549 breast = system: BT-549 breast
CAKI-1 renal = system: CAKI-1 renal
CCRF-CEM leukemia = system: CCRF-CEM leukemia
COLO 205 colon = system: COLO 205 colon
DU-145 prostate = system: DU-145 prostate
EKVX NSCLC = system: EKVX NSCLC
HCC-2998 colon = system: HCC-2998 colon
HCT-116 colon = system: HCT-116 colon
HCT-15 colon = system: HCT-15 colon
HL-60(TB) leukemia = system: HL-60(TB) leukemia
HOP-62 NSCLC = system: HOP-62 NSCLC
HOP-92 NSCLC = system: HOP-92 NSCLC
HS 578T breast = system: HS 578T breast
HT29 colon = system: HT29 colon
IGROV1 ovarian = system: IGROV1 ovarian
K-562 leukemia = system: K-562 leukemia
KM12 colon = system: KM12 colon
LOX IMVI melanoma = system: LOX IMVI melanoma
M14 melanoma = system: M14 melanoma
MALME-3M melanoma = system: MALME-3M melanoma
MCF7 breast = system: MCF7 breast
MDA-MB-231 breast = system: MDA-MB-231 breast
MDA-MB-435 = system: MDA-MB-435
MOLT-4 leukemia = system: MOLT-4 leukemia
NCI-H226 lung = system: NCI-H226 lung
NCI-H23 lung = system: NCI-H23 lung
NCI-H460 lung = system: NCI-H460 lung
NCI-H522 lung = system: NCI-H522 lung
NCI/ADR-RES ovarian = system: NCI/ADR-RES ovarian
OVCAR-3 ovarian = system: OVCAR-3 ovarian
OVCAR-4 ovarian = system: OVCAR-4 ovarian
OVCAR-5 ovarian = system: OVCAR-5 ovarian
OVCAR-8 ovarian = system: OVCAR-8 ovarian
PC-3 prostate = system: PC-3 prostate
RPMI-8226 leukemia = system: RPMI-8226 leukemia
RXF 393 renal = system: RXF 393 renal
SF-268 CNS = system: SF-268 CNS
SF-295 CNS = system: SF-295 CNS
SF-539 CNS = system: SF-539 CNS
SK-MEL-2 melanoma = system: SK-MEL-2 melanoma
SK-MEL-28 melanoma = system: SK-MEL-28 melanoma
SK-MEL-5 melanoma = system: SK-MEL-5 melanoma
SK-OV-3 ovarian = system: SK-OV-3 ovarian
SN12C renal = system: SN12C renal
SNB-19 CNS = system: SNB-19 CNS
SNB-75 CNS = system: SNB-75 CNS
SR leukemia = system: SR leukemia
SW-620 colon = system: SW-620 colon
T-47D breast = system: T-47D breast
TK-10 renal = system: TK-10 renal
U251 CNS = system: U251 CNS
UACC-257 melanoma = system: UACC-257 melanoma
UACC-62 melanoma = system: UACC-62 melanoma
UO-31 renal = system: UO-31 renal

## COC1CCN(C(=O)c2cc(Cc3n[nH]c(=O)c4ccccc34)ccc2F)CC1
786-0 renal
  GI50: > 100 µM
  TGI: > 100 µM
A498 renal
  GI50: > 41.2 µM
  TGI: > 100 µM
A549 NSCLC
  GI50: 58.9 µM
  TGI: > 100 µM
ACHN renal
  GI50: > 100 µM
  TGI: > 100 µM
BT-549 breast
  GI50: 28.8 µM
  TGI: > 100 µM
CAKI-1 renal
  GI50: 32.3 µM
  TGI: > 100 µM
CCRF-CEM leukemia
  GI50: 43.9 µM
  TGI: > 100 µM
COLO 205 colon
  GI50: > 100 µM
  TGI: > 100 µM
DU-145 prostate
  GI50: > 85.7 µM
  TGI: > 100 µM
EKVX NSCLC
  GI50: > 100 µM
  TGI: > 100 µM
HCC-2998 colon
  GI50: > 100 µM
  TGI: > 100 µM
HCT-116 colon
  GI50: > 100 µM
  TGI: > 100 µM
HCT-15 colon
  GI50: > 100 µM
  TGI: > 100 µM
HL-60(TB) leukemia
  GI50: > 85.3 µM
  TGI: > 100 µM
HOP-62 NSCLC
  GI50: 33.4 µM
  TGI: > 100 µM
HOP-92 NSCLC
  GI50: 41.5 µM
  TGI: > 100 µM
HS 578T breast
  GI50: > 64.5 µM
  TGI: > 100 µM
HT29 colon
  GI50: > 100 µM
  TGI: > 100 µM
IGROV1 ovarian
  GI50: > 60.4 µM
  TGI: > 100 µM
K-562 leukemia
  GI50: > 89.1 µM
  TGI: > 100 µM
KM12 colon
  GI50: > 100 µM
  TGI: > 100 µM
LOX IMVI melanoma
  GI50: 58.5 µM
  TGI: > 100 µM
M14 melanoma
  GI50: > 90.9 µM
  TGI: > 100 µM
MALME-3M melanoma
  GI50: > 100 µM
  TGI: > 100 µM
MCF7 breast
  GI50: 60.8 µM
  TGI: > 100 µM
MDA-MB-231 breast
  GI50: > 100 µM
  TGI: > 100 µM
MDA-MB-435
  GI50: > 100 µM
  TGI: > 100 µM
MOLT-4 leukemia
  GI50: 39.3 µM
  TGI: > 100 µM
NCI-H226 lung
  GI50: 89.2 µM
  TGI: > 100 µM
NCI-H23 lung
  GI50: 51.7 µM
  TGI: > 100 µM
NCI-H460 lung
  GI50: 25.6 µM
  TGI: > 100 µM
NCI-H522 lung
  GI50: 33.5 µM
  TGI: > 100 µM
NCI/ADR-RES ovarian
  GI50: > 76.8 µM
  TGI: > 100 µM
OVCAR-3 ovarian
  GI50: 74.1 µM
  TGI: > 100 µM
OVCAR-4 ovarian
  GI50: 36.7 µM
  TGI: > 100 µM
OVCAR-5 ovarian
  GI50: > 100 µM
  TGI: > 100 µM
OVCAR-8 ovarian
  GI50: > 73.2 µM
  TGI: > 100 µM
PC-3 prostate
  GI50: > 87.6 µM
  TGI: > 100 µM
RPMI-8226 leukemia
  GI50: 60.9 µM
  TGI: > 100 µM
RXF 393 renal
  GI50: 0.926 µM
  TGI: 45.2 µM
SF-268 CNS
  GI50: 58.3 µM
  TGI: > 100 µM
SF-295 CNS
  GI50: 24.2 µM
  TGI: > 100 µM
SF-539 CNS
  GI50: > 100 µM
  TGI: > 100 µM
SK-MEL-2 melanoma
  GI50: > 47.1 µM
  TGI: > 100 µM
SK-MEL-28 melanoma
  GI50: > 100 µM
  TGI: > 100 µM
SK-MEL-5 melanoma
  GI50: 32 µM
  TGI: > 100 µM
SK-OV-3 ovarian
  GI50: > 100 µM
  TGI: > 100 µM
SN12C renal
  GI50: 67.5 µM
  TGI: > 100 µM
SNB-19 CNS
  GI50: 57.6 µM
  TGI: > 100 µM
SNB-75 CNS
  GI50: 9.12 µM
  TGI: > 100 µM
SR leukemia
  GI50: 21.7 µM
  TGI: > 100 µM
SW-620 colon
  GI50: > 100 µM
  TGI: > 100 µM
T-47D breast
  GI50: 53.6 µM
  TGI: > 100 µM
TK-10 renal
  GI50: > 100 µM
  TGI: > 100 µM
U251 CNS
  GI50: > 55.3 µM
  TGI: > 100 µM
UACC-257 melanoma
  GI50: > 83.2 µM
  TGI: > 100 µM
UACC-62 melanoma
  GI50: 40 µM
  TGI: > 100 µM
UO-31 renal
  GI50: 84.5 µM
  TGI: > 100 µM

From PubChem BioAssay (NCI)
